Patent publication EP4603492A1, “SULFONAMIDE COMPOUND AND HARMFUL-ARTHROPOD-CONTROLLING COMPOSITION CONTAINING SAME” (Sumitomo Chemical Company, Limited, priority 2022, dated 2024)

Assays:
Format in all cases: in vivo
[1] = test system: cotton aphids (Aphis gossypii); assay: whole plant or invertebrate; conditions: topical, 120 h, read-out: control value
Protocol: Each test compound is formulated according to the method mentioned in Formulation Example 5 to obtain each formulation, and water containing 0.03% by volume of […] (registered trademark) is added thereto to prepare a diluted solution containing a prescribed concentration of each test compound. Approximately thirty cotton aphids (Aphis gossypii) (all stages of life) are released onto cucumber (Cucumis sativus) seedlings (on the developmental stage of the second true leaf) planted in a container. After 1 day, each of the diluted solutions is sprayed over the seedlings in a ratio of 10 mL/seedling. After additional 5 days, the number of the surviving insects is examined and the control value is calculated by the following equation. Control value (%) = {1-(Cb×Tai)/(Cai×Tb)} × 100 [formula] where symbols in the equation represent the following meanings: • Cb: Number of test insects in non-treated area; • Cai: Number of surviving insects at the time of the investigation in non-treated area; • Tb: Number of test insects in treated area; and • Tai: Number of surviving insects at the time of the investigation in treated area. Here, the "non-treated area" represents an area where the same treatment procedure as that of the treated area is carried out except for not using each test compound. The test was carried out by making the prescribed concentration 200 ppm and using the following present compounds as a test compound according to the test method 11. […] The test was carried out by making the prescribed concentration 50 ppm and using the following present compounds as a test compound according to the test method 11.

[2] = test system: common cutworm (Spodoptera litura); assay: Test method 3: sprayed cabbage leaves, 2nd instar larvae of common cutworm (Formulation Example 1); conditions: 120 h, Test Example 3-1, spray 20 mL/seedling, after 5 days, 25°C
Protocol: (§1) Each test compound is formulated according to the method mentioned in Formulation Example 1 to obtain each formulation, and water containing 0.03% by volume of Shindaine (registered trademark) is added thereto to prepare a diluted solution containing a prescribed concentration of each test compound.
(§2) Each of the diluted solutions is sprayed over cabbage (Brassicae oleracea) seedlings (on the developmental stage of the second to third true leaf) planted in a container in a ratio of 20 mL/seedling. Thereafter, the stem and leaf of the seedlings are cut out, and placed in a container lined with a filter paper. Five 2nd instar larvae of common cutworm (Spodoptera litura) are released into the container. After 5 days, the number of the surviving insects is counted, and the mortality of insects is calculated by the following equation. [formula]
The test was carried out by making the prescribed concentration 500 ppm and using the following present compounds as a test compound according to the test method 3.

[3] = test system: diamondback moth (Plutella xylostella); assay: Test method 4: sprayed cabbage leaves, 2nd instar larvae of diamondback moth (Formulation Example 1); conditions: 120 h, Test Example 4-1, spray 20 mL/seedling, after 5 days, 25°C
Protocol: as §1
as §2, with “diamondback moth (Plutella xylostella)” for “common cutworm (Spodoptera litura)”
The test was carried out by making the prescribed concentration 500 ppm and using the following present compounds as a test compound according to the test method 4.

[4] = test system: diamondback moth (Plutella xylostella); assay: Test method 10: sprayed cabbage seedlings, 3rd instar larvae of diamondback moth (Formulation Example 5); conditions: 120 h, spray 20 mL/seedling, after 5 days, 25°C; for mortality at 200 ppm: Test Example 10-1, 200 ppm; for mortality at 50 ppm: Test Example 10-2, 50 ppm
Protocol: (§3) Each test compound is formulated according to the method mentioned in Formulation Example 5 to obtain each formulation, and water containing 0.03% by volume of Shindaine (registered trademark) is added thereto to prepare a diluted solution containing a prescribed concentration of each test compound.
(§4) Each of the diluted solutions is sprayed over cabbage (Brassicae oleracea) seedlings (on the developmental stage of the third to fourth true leaf) planted in a container in a ratio of 20 mL/seedling. Thereafter, ten 3rd instar larvae of diamondback moth (Plutella xylostella) are released into the container. After 5 days, the number of the surviving insects is counted, and the mortality of insects is calculated by the following equation. [formula]
The test was carried out by making the prescribed concentration 200 ppm and using the following present compounds as a test compound according to the test method 10.
The test was carried out by making the prescribed concentration 50 ppm and using the following present compounds as a test compound according to the test method 10.

[5] = test system: common cutworm (Spodoptera litura); assay: Test method 9: sprayed cabbage seedlings, 3rd instar larvae of common cutworm (Formulation Example 5); conditions: 144 h, Test Example 9-1, spray 20 mL/seedling, after 6 days, 25°C
Protocol: as §3
as §4, with “common cutworm (Spodoptera litura)” for “diamondback moth (Plutella xylostella)”, “6” for “5”, “counted” for “counted,”
The test was carried out by making the prescribed concentration 200 ppm and using the following present compounds as a test compound according to the test method 9.

[6] = test system: western corn rootworm (Diabrotica virgifera virgifera); assay: whole plant or invertebrate; conditions: 120 h
Protocol: Each test compound is dissolved in 50 µL of a mixed solution of polyoxyethylene sorbitan monococoate and acetone (at a volume ratio of 5:95) per 1 mg of the test compound. Water containing 0.03% by volume of Shindaine (registered trademark) is added thereto to prepare a diluted solution containing a prescribed concentration of each test compound.
Young seedlings of corns (Zea mays) are immersed in each of the diluted solutions for 30 seconds. Thereafter, two seedlings are placed in a petri dish (diameter: 90 mm), and ten 2nd instar larvae of western corn rootworm (Diabrotica virgifera virgifera) are released into the dish. After 5 days, the number of the […] is counted, and the mortality of insects is calculated by the following equation. Mortality (%) = (1−Numberofdeadinsects/10) × 100 [formula]
The test was carried out by making the prescribed concentration 200 ppm and using the following present compounds as a test compound according to the test method 5.

[7] = test system: German cockroach (Blattella germanica); assay: Test method 6: coated container contact test, German cockroach male adults; conditions: 72 h, read-out: mortality of insects
Protocol: An acetone solution prepared by making the concentration of the test compound 800 ppm is poured into a 50 mL container, and the inner face of the container is uniformly coated with the test compound so as to make the coating amount of 40 mg/m^2, followed by drying.
Five German cockroach (Blattella germanica) male adults are released into the container, and the container is then covered with a lid. After the prescribed time is elapsed, the state of the German cockroach are examined. The mortality of insects is calculated by the following equation. [formula]
The test was carried out by making the prescribed elapsed time 3 days and using the following present compounds as a test compound according to the test method 6.

[8] = test system: common house mosquito (Culex pipiens pallens); assay: Test method 12: final instar larvae of common house mosquito released into diluted solution; conditions: 24 h, read-out: control value
Protocol: Each test compound is formulated according to the method mentioned in Formulation Example 1 to obtain each formulation, and water is added thereto to prepare a diluted solution containing a prescribed concentration of each test compound.
Thirty final instar larvae of common house mosquito (Culex pipiens pallens) are released into the diluted solution and, after 1 day, the state of the common house mosquito larvae is examined and the mortality of insects is calculated by the following equation. [formula]
The test was carried out by making the prescribed concentration 3.5 ppm and using the following present compounds as a test compound according to the test method 12.

[9] = test system: cotton aphids (Aphis gossypii); assay: Test method 1: spray on cucumber seedlings infested with cotton aphids (Formulation Example 1); conditions: 120 h, Test Example 1-1, spray 10 mL/seedling, 5 days after spraying, 25°C, read-out: control value
Protocol: as §1
Approximately 30 cotton aphids (Aphis gossypii) (all stages of life) are released onto cucumber (Cucumis sativus) seedlings (on the developmental stage of the second true leaf) planted in a container. After 1 day, each of the diluted solutions is sprayed over the seedlings in a ratio of 10 mL/seedling. After additional 5 days, the number of the surviving insects is examined and the control value is calculated by the following equation. Control value (%) = {1−(Cb×Tai)/(Cai×Tb)} × 100 [formula] where symbols in the equation represent the following meanings: • Cb: Number of test insects in non-treated area; • Cai: Number of surviving insects at the time of the investigation in non-treated area; • Tb: Number of test insects in treated area; and • Tai: Number of surviving insects at the time of the investigation in treated area.
Here, the "non-treated area" represents an area where the same treatment procedure as that of the treated area is carried out except for not using each test compound.
The test was carried out by making the prescribed concentration 500 ppm and using the following present compounds as a test compound according to the test method 1.

[10] = test system: houseflies (Musca domestica); assay: Test method 8: coated container contact test, adult male houseflies; conditions: 24 h, read-out: mortality of insects
Protocol: An acetone solution prepared by making the concentration of the test compound 800 ppm is poured into a 20 mL container, and the inner face of the container is uniformly coated with the test compound so as to make the coating amount of 40 mg/m^2, followed by drying.
Five adult male houseflies (Musca domestica) are released into the container, and the container is then covered with a lid. After the prescribed time is elapsed, the state of the houseflies are examined. The mortality of insects is calculated by the following equation. [formula]
The test was carried out by making the prescribed elapsed time 1 day and using the following present compounds as a test compound according to the test method 8.

SMILES | mortality at 50 ppm [1] | mortality at 200 ppm [1] | mortality at 500 ppm [2] | mortality at 500 ppm [3] | mortality at 200 ppm [4] | mortality at 50 ppm [4] | mortality at 200 ppm [5] | mortality at 200 ppm [6] | mortality at 40 mg/m2, 40 mg/m2 [7] | mortality at 3.5 ppm [8] | mortality at 500 ppm [9] | mortality at 40 mg/m2, 40 mg/m2 [10]
CNS(=O)(=O)c1c(-c2cnc(OCC(F)(F)C(F)(F)F)cn2)nc2ccc(Br)cn12 [compound 1] | ≥ 90% | ≥ 90% | ≥ 80% | ≥ 80% | ≥ 80% | ≥ 80% | ≥ 80% | ≥ 80% | ≥ 80% | ≥ 90% | ≥ 90% | ≥ 80%
CCNS(=O)(=O)c1c(-c2cnc(OCC(F)(F)C(F)(F)F)cn2)nc2ccc(Br)cn12 [compound 2] | ≥ 90% | ≥ 90% | ≥ 80% | ≥ 80% | ≥ 80% | ≥ 80% | ≥ 80% | ≥ 80% | ≥ 80% | ≥ 90% | ≥ 90% | ≥ 80%
CNS(=O)(=O)c1c(-c2ccc(OCC(F)(F)C(F)F)nn2)nc2ccc(I)cn12 [compound 3] | ≥ 90% | ≥ 90% | ≥ 80% | ≥ 80% | ≥ 80% | ≥ 80% | ≥ 80% | ≥ 80% | – | – | ≥ 90% | –
CN(C)S(=O)(=O)c1c(-c2ccc(OCC(F)(F)C(F)F)nn2)nc2ccc(I)cn12 [compound 4] | – | – | ≥ 80% | ≥ 80% | ≥ 80% | ≥ 80% | ≥ 80% | – | – | – | ≥ 90% | –
